According to patent publication US8012956B2, “Tropane compounds” (Exelixis, Inc., priority 2007, dated 2011):

What follows are compounds tested against HSP90 (Homo sapiens, UniProt P07900) (assay: HSP90 inhibition (HSP90 IC50)).
Assay type: biochemical

Structure (SMILES) | IC50
NC(=O)c1ccc(N2[C@@H]3CC[C@H]2C[C@@H](NC(=O)c2ccc(C(N)=O)c(NC4CCC4)c2)C3)nc1 [N4-{8-[5-(aminocarbonyl)pyridin-2-yl]-8-azabicyclo[3.2.1]oct-3-endo-yl}-2-(cyclobutylamino)benzene-1,4-dicarboxamide] | < 500 nM
NC(=O)c1ccc(N2[C@@H]3CC[C@H]2C[C@@H](NC(=O)c2ccc(C(N)=O)c(OCCN4CCOCC4)c2)C3)nc1 [N4-{8-[5-(aminocarbonyl)pyridin-2-yl]-8-azabicyclo[3.2.1]oct-3-endo-yl}-2-[(2-morpholin-4-ylethyl)oxybenzene-1,4-dicarboxylate] | 1000 to 2000 nM
NC(=O)c1ccc(N2C3CCC2CC(NC(=O)c2ccc(C(N)=O)c(N[C@H]4CC[C@H](O)CC4)c2)C3)nc1 (stereo partly drawn) [N4-{8-[5-(aminocarbonyl)pyridin-2-yl]-8-azabicyclo[3.2.1]oct-3-endo-yl}-2-[(4-hydroxycyclohexyl)amino]benzene-1,4-dicarboxamide] | < 500 nM
NC(=O)c1ccc(N2C3CCC2CC(NC(=O)c2ccc(C(N)=O)c(N[C@H]4CC[C@H](N)CC4)c2)C3)nc1 (stereo partly drawn) [N4-{8-[5-(aminocarbonyl)pyridin-2-yl]-8-azabicyclo[3.2.1]oct-3-endo-yl}-2-[(trans-4-aminocyclohexyl)amino]benzene-1,4-dicarboxamide] | < 500 nM
COCCNc1cc(C(=O)N[C@H]2C[C@H]3CC[C@@H](C2)N3c2ccc(C(N)=O)cn2)ccc1C(N)=O [N4-{8-[5-(aminocarbonyl)pyridin-2-yl]-8-azabicyclo[3.2.1]oct-3-endo-yl}-2-{[2-(methyloxy)ethyl]amino}benzene-1,4-dicarboxamide] | < 500 nM
CS(=O)(=O)CCNc1cc(C(=O)N[C@H]2C[C@H]3CC[C@@H](C2)N3c2ccc(C(N)=O)cn2)ccc1C(N)=O [N4-{8-[5-(aminocarbonyl)pyridin-2-yl]-8-azabicyclo[3.2.1]oct-3-endo-yl}-2-{[2-(methylsulfonyl)ethyl]amino}benzene-1,4-dicarboxamide] | < 500 nM
COc1ccc(Nc2cc(C(=O)N[C@H]3C[C@H]4CC[C@@H](C3)N4c3ccc(C(N)=O)cn3)ccc2C(N)=O)cc1OCCN(C)C [N4-{8-[5-(aminocarbonyl)pyridin-2-yl]-8-azabicyclo[3.2.1]oct-3-endo-yl}-2-{[3-{[2-(dimethylamino)ethyl]oxy}-4-(methyloxy)phenyl]amino}benzene-1,4-dicarboxamide] | < 500 nM
NC(=O)c1ccc(C(=O)N[C@H]2C[C@H]3CC[C@@H](C2)N3c2ccc(C(=O)C3CCC3)cn2)cc1NCC1CC1 [N4-{8-[5-(cyclobutylcarbonyl)pyridin-2-yl]-8-azabicyclo[3.2.1]oct-3-endo-yl}-2-[(cyclopropylmethyl)amino]benzene-1,4-dicarboxamide] | 1000 to 2000 nM
NC(=O)c1ccc(C(=O)N[C@H]2C[C@H]3CC[C@@H](C2)N3c2ccc(C(=O)C3CCCC3)cn2)cc1NCC1CC1 [N4-{8-[5-(cyclopentylcarbonyl)pyridin-2-yl]-8-azabicyclo[3.2.1]oct-3-endo-yl}-2-[(cyclopropylmethyl)amino]benzene-1,4-dicarboxamide] | 2000 to 10000 nM
CCCNc1cc(C(=O)N[C@H]2C[C@H]3CC[C@@H](C2)N3c2ccc(C(=O)C3CC3)cn2)ccc1C(N)=O [N4-{8-[5-(cyclopropylcarbonyl)pyridin-2-yl]-8-azabicyclo[3.2.1]oct-3-endo-yl}-2-(propylamino)benzene-1,4-dicarboxamide] | < 500 nM
NC(=O)c1ccc(C(=O)N[C@H]2C[C@H]3CC[C@@H](C2)N3c2ccc(C(=O)C3CC3)cn2)cc1Nc1ccncc1 [N4-{8-[5-(cyclopropylcarbonyl)pyridin-2-yl]-8-azabicyclo[3.2.1]oct-3-endo-yl}-2-(pyridin-4-ylamino)benzene-1,4-dicarboxamide] | < 500 nM
CC(C)OCCNc1cc(C(=O)N[C@H]2C[C@H]3CC[C@@H](C2)N3c2ccc(C(=O)C3CC3)cn2)ccc1C(N)=O [N4-{8-[5-(cyclopropylcarbonyl)pyridin-2-yl]-8-azabicyclo[3.2.1]oct-3-endo-yl}-2-({2-[(1-methylethyl)oxy]ethyl}amino)benzene-1,4-dicarboxamide] | < 500 nM
CC(Nc1cc(C(=O)N[C@H]2C[C@H]3CC[C@@H](C2)N3c2ccc(C(=O)C3CC3)cn2)ccc1C(N)=O)C1CC1 (stereo partly drawn) [N4-{8-[5-(cyclopropylcarbonyl)pyridin-2-yl]-8-azabicyclo[3.2.1]oct-3-endo-yl}-2-[(1-cyclopropylethyl)amino]benzene-1,4-dicarboxamide] | < 500 nM
CCC(CC)Nc1cc(C(=O)N[C@H]2C[C@H]3CC[C@@H](C2)N3c2ccc(C(=O)C3CC3)cn2)ccc1C(N)=O [N4-{8-[5-(cyclopropylcarbonyl)pyridin-2-yl]-8-azabicyclo[3.2.1]oct-3-endo-yl}-2-[(1-ethylpropyl)amino]benzene-1,4-dicarboxamide] | < 500 nM
CCC(C)Nc1cc(C(=O)N[C@H]2C[C@H]3CC[C@@H](C2)N3c2ccc(C(=O)C3CC3)cn2)ccc1C(N)=O (stereo partly drawn) [N4-{8-[5-(cyclopropylcarbonyl)pyridin-2-yl]-8-azabicyclo[3.2.1]oct-3-endo-yl}-2-[(1-methylpropyl)amino]benzene-1,4-dicarboxamide] | < 500 nM
NC(=O)c1ccc(C(=O)N[C@H]2C[C@H]3CC[C@@H](C2)N3c2ccc(C(=O)C3CC3)cn2)cc1NCC1CC1 [N4-{8-[5-(cyclopropylcarbonyl)pyridin-2-yl]-8-azabicyclo[3.2.1]oct-3-endo-yl}-2-[(cyclopropylmethyl)amino]benzene-1,4-dicarboxamide] | < 500 nM
NC(=O)c1ccc(C(=O)NC2CC3CCC(C2)N3c2ccc(C(=O)C3CC3)cn2)cc1N[C@H]1CC[C@H](N2CCCCC2)CC1 (stereo partly drawn) [N4-{8-[5-(cyclopropylcarbonyl)pyridin-2-yl]-8-azabicyclo[3.2.1]oct-3-endo-yl}-2-[(trans-4-piperidin-1-ylcyclohexyl)amino]benzene-1,4-dicarboxamide] | < 500 nM
CC[C@@H](C)Nc1cc(C(=O)NC2CC3CCC(C2)N3c2ccc(C(=O)C3CC3)cn2)ccc1C(N)=O (stereo partly drawn) [N4-{8-[5-(cyclopropylcarbonyl)pyridin-2-yl]-8-azabicyclo[3.2.1]oct-3-endo-yl}-2-{[(1R)-1-methylpropyl]amino}benzene-1,4-dicarboxamide] | < 500 nM
CC(C)[C@H](C)Nc1cc(C(=O)NC2CC3CCC(C2)N3c2ccc(C(=O)C3CC3)cn2)ccc1C(N)=O (stereo partly drawn) [N4-{8-[5-(cyclopropylcarbonyl)pyridin-2-yl]-8-azabicyclo[3.2.1]oct-3-endo-yl}-2-{[(1S)-1,2-dimethylpropyl]amino}benzene-1,4-dicarboxamide] | < 500 nM
CC[C@H](C)Nc1cc(C(=O)NC2CC3CCC(C2)N3c2ccc(C(=O)C3CC3)cn2)ccc1C(N)=O (stereo partly drawn) [N4-{8-[5-(cyclopropylcarbonyl)pyridin-2-yl]-8-azabicyclo[3.2.1]oct-3-endo-yl}-2-{[(1S)-1-methylpropyl]amino}benzene-1,4-dicarboxamide] | < 500 nM
NC(=O)c1ccc(C(=O)N[C@H]2C[C@H]3CC[C@@H](C2)N3c2ccc(C(=O)C3CC3)cn2)cc1NCC(F)(F)C(F)(F)F [N4-{8-[5-(cyclopropylcarbonyl)pyridln-2-yl]-8-azabicyclo[3.2.1]oct-3-endo-yl}-2-[(2,2,3,3,3-pentafluoropropyl)amino]benzene-1,4-dicarboxamide] | < 500 nM
COc1ccc(CNC(=O)c2ccc(N3[C@@H]4CC[C@H]3C[C@@H](NC(=O)c3cccc(OC)c3C)C4)nc2)cc1OC [N {[3,4-bis(methyloxy)phenyl]methyl}-6-[3-endo-({[2-methyl-3-(methyloxy)phenyl]carbonyl}amino)-8-azabicyclo[3.2.1]oct-8-yl]pyridine-3-carboxamide] | < 500 nM
COc1cccc(C(=O)N[C@H]2C[C@H]3CC[C@@H](C2)N3c2ccc(C(=O)Nc3ccc4c(c3)OCO4)cn2)c1C [N-1,3-benzodioxol-5-yl-6-[3-endo-({[2-methyl-3-(methyloxy)phenyl]carbonyl}amino)-8-azabicyclo[3.2.1]oct-8-yl]pyridine-3-carboxamide] | 1000 to 2000 nM
COc1cccc(C(=O)N[C@H]2C[C@H]3CC[C@@H](C2)N3c2ccc(C(=O)NCc3ccc4c(c3)OCO4)cn2)c1C [N-(1,3-benzodioxol-5-ylmethyl)-6-[3-endo-({[2-methyl-3-(methyloxy)phenyl]carbonyl}amino)-8-azabicyclo[3.2.1]oct-8-yl]pyridine-3-carboxamide] | < 500 nM
COc1cccc(C(=O)N[C@H]2C[C@H]3CC[C@@H](C2)N3c2ccc(C(=O)NC(C)C)cn2)c1C [N-(1-methylethyl)-6-[3-endo-({[2-methyl-3-(methyloxy)phenyl]carbonyl}amino)-8-azabicyclo[3.2.1]oct-8-yl]pyridine-3-carboxamide] | 1000 to 2000 nM
COc1cccc(C(=O)NC2CC3CCC(C2)N3c2ccc(C(=O)NCC(O)CO)cn2)c1C (stereo not drawn) [N-(2,3-dihydroxypropyl)-6-[3-endo-({[2-methyl-3-(methyloxy)phenyl]carbonyl}amino)-8-azabicyclo[3.2.1]oct-8-yl]pyridine-3-carboxamide] | 1000 to 2000 nM
COc1cccc(C(=O)N[C@H]2C[C@H]3CC[C@@H](C2)N3c2ccc(C(=O)NCCO)cn2)c1C [N-(2-hydroxyethyl)-6-[3-endo-({[2-methyl-3-(methyloxy)phenyl]carbonyl}amino)-8-azabicyclo[3.2.1]oct-8-yl]pyridine-3-carboxamide] | 2000 to 10000 nM
COc1cccc(C(=O)N[C@H]2C[C@H]3CC[C@@H](C2)N3c2ccc(C(=O)NCCC(C)(C)C)cn2)c1C [N-(3,3-dimethylbutyl)-6-[3-endo-({[2-methyl-3-(methyloxy)phenyl]carbonyl}amino)-8-azabicyclo[3.2.1]oct-8-yl]pyridine-3-carboxamide] | 2000 to 10000 nM
COc1cccc(C(=O)N[C@H]2C[C@H]3CC[C@@H](C2)N3c2ccc(C(=O)Nc3cc(C)cc(C)c3)cn2)c1C [N-(3,5-dimethylphenyl)-6-[3-endo-({[2-methyl-3-(methyloxy)phenyl]carbonyl}amino)-8-azabicyclo[3.2.1]oct-8-yl]pyridine-3-carboxamide] | 2000 to 10000 nM
COc1cccc(C(=O)N[C@H]2C[C@H]3CC[C@@H](C2)N3c2ccc(C(=O)Nc3cccc(Cl)c3)cn2)c1C [N-(3-chlorophenyl)-6-[3-endo-({[2-methyl-3-(methyloxy)phenyl]carbonyl)amino)-8-azabicyclo[3.2.1]oct-8-yl]pyridine-3-carboxamide] | 2000 to 10000 nM
